Where two headings read alike, the source gives them in different places.
What was measured:
HepG2-A16-CD81EGFP cells [1] = test system: HepG2-A16-CD81EGFP cells
[2] = test system: Plasmodium berghei (Pb-Luc) exoerythrocytic-stage parasites
[3] = test system: P. falciparum Dd2 erythrocytic stage; test: Dd2 erythrocytic-stage assay (SYBR Green) for DOS compounds; details: for IC50: read-out: Erythrocytic-stage (Pf Dd2) IC50, Figure 4b
[4] = test system: P. falciparum 3D7 parasites; test: Asexual erythrocytic-stage SYBR Green I proliferation assay, 1536-well; assay type: cell-based, Plasmodium falciparum; details: Plasmodium falciparum
[5] = test system: Plasmodium berghei (Pb-Luc) exoerythrocytic-stage parasites; test: microbe, parasite or virus in culture; details: for inhibition at 10 µM: read-out: PbLuc max inhibition (%) @ 10 uM
[6] = test system: Pb-Luc exoerythrocytic-stage parasites in Huh7.5.1 cells; test: Pb-Luc time of action assay (modified 384-well luciferase assay); details: Plasmodium berghei
Plasmodium DHODH enzyme = target: T1, Plasmodium DHODH enzyme (Plasmodium falciparum, UniProt Q08210); test: DHODH assay; details: data not shown
T1 sequence (Q08210 24-569): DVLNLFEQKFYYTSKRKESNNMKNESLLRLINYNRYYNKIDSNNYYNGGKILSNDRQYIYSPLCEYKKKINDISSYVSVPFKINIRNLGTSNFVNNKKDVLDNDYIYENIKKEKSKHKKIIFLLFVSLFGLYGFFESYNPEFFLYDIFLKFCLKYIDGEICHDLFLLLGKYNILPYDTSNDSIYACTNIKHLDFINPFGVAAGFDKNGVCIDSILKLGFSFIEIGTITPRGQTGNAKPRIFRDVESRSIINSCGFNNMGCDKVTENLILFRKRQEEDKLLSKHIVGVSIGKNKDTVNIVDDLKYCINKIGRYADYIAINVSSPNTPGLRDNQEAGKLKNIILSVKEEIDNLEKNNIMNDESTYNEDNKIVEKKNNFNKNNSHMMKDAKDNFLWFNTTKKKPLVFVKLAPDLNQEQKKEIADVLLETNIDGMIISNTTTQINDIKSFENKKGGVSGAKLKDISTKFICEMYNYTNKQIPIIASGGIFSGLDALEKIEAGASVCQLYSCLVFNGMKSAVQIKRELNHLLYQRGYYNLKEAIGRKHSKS

HepG2-A16-CD81EGFP cells [7] = test: cells; details: Homo sapiens; for IC50: HepG2, read-out: Tox IC50; for inhibition at 10 µM: HepG2, read-out: Tox max inhibition (%) @ 10 uM
Huh7.5.1 cells = test: Cytotoxicity in Huh7.5.1 cells (Figure S4); details: at 10 μM
[8] = target: QuantiLum Recombinant Luciferase (Photinus pyralis, UniProt P08659); test: Bioluminescence quantification of compound luciferase inhibition; details: for Emax: read-out: LucInhib max inhibition
Sequence of QuantiLum Recombinant Luciferase (P08659 whole entry): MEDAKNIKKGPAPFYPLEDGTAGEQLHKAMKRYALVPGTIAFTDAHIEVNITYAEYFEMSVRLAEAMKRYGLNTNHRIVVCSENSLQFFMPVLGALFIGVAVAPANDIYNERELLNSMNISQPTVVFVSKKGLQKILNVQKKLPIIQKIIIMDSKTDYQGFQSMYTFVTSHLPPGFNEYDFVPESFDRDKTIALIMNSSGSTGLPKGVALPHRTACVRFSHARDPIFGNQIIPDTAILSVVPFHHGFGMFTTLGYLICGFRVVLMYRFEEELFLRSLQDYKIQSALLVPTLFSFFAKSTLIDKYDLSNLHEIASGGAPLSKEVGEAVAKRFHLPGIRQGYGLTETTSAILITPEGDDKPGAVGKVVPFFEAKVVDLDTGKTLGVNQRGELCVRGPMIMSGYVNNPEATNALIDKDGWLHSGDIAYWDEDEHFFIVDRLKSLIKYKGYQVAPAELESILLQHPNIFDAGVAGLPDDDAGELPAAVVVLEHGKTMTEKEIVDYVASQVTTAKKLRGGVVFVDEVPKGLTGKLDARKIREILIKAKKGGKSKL

[9] = test system: P. berghei expressing GFP (Pb-GFP) in Huh7.5.1 cells; test: Flow cytometry assay of traversal, invasion, EEF frequency and EEF development; assay type: cell-based, Plasmodium berghei; details: 2 hours post infection; 1 μM
[10] = test system: Plasmodium cynomolgi exoerythrocytic-stage small (hypnozoites) and large (liver stage schizonts) parasites; test: P. cynomolgi liver assay in primary hepatocytes; details: Plasmodium cynomolgi, Hepatocyte
[11] = read-out: Exoerythrocytic-stage Pb-Luc IC50, Figure 4b, first assay
[12] = read-out: Exoerythrocytic-stage Pb-Luc IC50, Figure 4b, second assay (value in parentheses)
[13] = 3D7, read-out: P. falciparum (blood) IC50, Table S1, validation set of 50 antimalarials
[14] = read-out: P. berghei (liver) IC50, Table S1, validation set of 50 antimalarials, Pb-Luc
[15] = Huh-7.5.1, read-out: Pb-Luc IC50, Treatment: 1
[16] = Huh-7.5.1, read-out: Pb-Luc IC50, Treatment: 2
[17] = Huh-7.5.1, read-out: Pb-Luc IC50, Treatment: 3
[18] = Huh-7.5.1, read-out: Pb-Luc IC50, Treatment: 4
[19] = Huh-7.5.1, read-out: Pb-Luc IC50, Treatment: 5
[20] = Huh-7.5.1, read-out: Pb-Luc IC50, Treatment: 6
[21] = HepG2, read-out: HepG2 Tox% @ 50 uM rep1
[22] = HepG2, read-out: HepG2 Tox% @ 50 uM rep2
[23] = read-out: Inhibition% @ 50 uM rep1
[24] = read-out: Inhibition% @ 50 uM rep2
[25] = read-out: PbLuc IC50, dose response, 1/3 dilutions, max conc. 10 or 50 uM, unit inferred
[26] = read-out: % inhibition normalized to untreated control, Large
[27] = read-out: % inhibition normalized to untreated control, Small

| Compound | IC50 [2, 12] [nM] | IC50 [3] [nM] | IC50 [6, 15] [nM] | IC50 [6, 16] [nM] | IC50 [6, 17] [nM] | IC50 [6, 18] [nM] | IC50 [6, 19] [nM] | IC50 [6, 20] [nM] | inhibition at 0.1 µM [10, 26] [%] | inhibition at 1 µM [10, 26] [%] | inhibition at 10 µM [10, 26] [%] | inhibition at 0.1 µM [10, 27] [%] | inhibition at 1 µM [10, 27] [%] | inhibition at 10 µM [10, 27] [%] | also measured |
| --- | --- | --- | --- | --- | --- | --- | --- | --- | --- | --- | --- | --- | --- | --- | --- |
| O=C(Nc1cccc(F)c1)N1CCCCN2[C@H](CO)[C@@H](c3ccc(C#Cc4cccnc4)cc3)[C@@H]2C1 [BRD47390] | 230 | 2580 |  |  |  |  |  |  |  |  |  |  |  |  | CC50 (HepG2-A16-CD81EGFP cells [1]): > 10000 nM; IC50 [2, 11]: 360 nM |
| CCc1nc(N)nc(N)c1-c1ccc(Cl)cc1 [Pyrimethamine, reference compound] |  |  | 122 | 21 | 252 | 19.7 | 18.8 | 18.9 |  |  |  |  |  |  | IC50 [4, 13]: 19.9 nM; IC50 [5, 14]: 5.1 nM |
| CS(=O)(=O)N1[C@H](C#N)[C@H](c2ccc(C#Cc3cccc(F)c3)cc2)[C@H]1CO [BRD0326] | 150 | > 10000 |  |  |  |  |  |  |  |  |  |  |  |  | CC50 (HepG2-A16-CD81EGFP cells [1]): > 10000 nM; IC50 [2, 11]: 300 nM; IC50 ([2]; read-out: Pb-Luc IC50, Figure 4a, stereoisomers tested in dose response): 152 nM; IC50 ([2]; read-out: Pb-Luc IC50, Figure 4a, stereoisomers tested in dose response, listed as BRD0326 SSS): < 1000 nM; activity in a DHODH assay (Plasmodium DHODH enzyme): inactive; erythrocytic-stage activity ([3]; in words): no erythrocytic-stage activity |
| COc1cccc(C=Cc2nc(=O)c3ccccc3o2)c1OC [MMV666693] |  |  | 172 | 20 | 297 | 15 | 16 | 12 | 22 | -3 | 15 | 29 | 16 | 30 | IC50 ([4]; 3D7, read-out: erythrocytic-stage P. falciparum IC50, values reported in Table S1, Additional File 1): < 100 nM; cytotoxicity at 50 µM (HepG2-A16-CD81EGFP cells [7]; [21]): -0.938%; cytotoxicity at 50 µM (HepG2-A16-CD81EGFP cells [7]; [22]): 7%; IC50 (HepG2-A16-CD81EGFP cells [7]): > 10000 nM; inhibition at 10 µM (HepG2-A16-CD81EGFP cells [7]): 123%; cytotoxicity in Huh7.5.1 cells (Huh7.5.1 cells): slight cytotoxicity; inhibition at 50 µM [5, 23]: 102%; inhibition at 50 µM [5, 24]: 103%; IC50 [5, 25]: 9.82 nM; inhibition at 10 µM [5]: 108%; IC50 [8]: 5330 nM; Emax [8]: 89%; effect on sporozoite invasion [9]: not affected; effect on sporozoite traversal of hepatocytes [9]: slight effect |
| Cc1ccc(N2C3c4ccccc4N(S(=O)(=O)c4ccc(C)cc4)C2c2ccccc2N3S(=O)(=O)c2ccc(C)cc2)cc1 [MMV007160] |  |  | 792 | 285 | 2880 | 177 | 198 | 179 | 17 | 14 | 0 | 17 | -25 | -11 | cytotoxicity at 50 µM (HepG2-A16-CD81EGFP cells [7]; [21]): -4.53%; cytotoxicity at 50 µM (HepG2-A16-CD81EGFP cells [7]; [22]): -10%; IC50 (HepG2-A16-CD81EGFP cells [7]): > 10000 nM; inhibition at 10 µM (HepG2-A16-CD81EGFP cells [7]): 10%; inhibition at 50 µM [5, 23]: 103%; inhibition at 50 µM [5, 24]: 105%; IC50 [5, 25]: 36.7 nM; inhibition at 10 µM [5]: 110%; IC50 [8]: > 20000 nM; Emax [8]: 14% |
| COc1ccccc1CNC(=O)CCn1c(=O)[nH]c2ccccc2c1=O [MMV665916] |  |  | 5730 | 5780 | 8160 | 4290 | 786 | 370 | 6 | 2 | -13 | 20 | -13 | -15 | cytotoxicity at 50 µM (HepG2-A16-CD81EGFP cells [7]; [21]): -21%; cytotoxicity at 50 µM (HepG2-A16-CD81EGFP cells [7]; [22]): -23%; IC50 (HepG2-A16-CD81EGFP cells [7]): > 10000 nM; inhibition at 10 µM (HepG2-A16-CD81EGFP cells [7]): -2.14%; inhibition at 50 µM [5, 23]: 99%; inhibition at 50 µM [5, 24]: 99%; IC50 [5, 25]: 44.3 nM; inhibition at 10 µM [5]: 100%; IC50 [8]: > 20000 nM; Emax [8]: 15% |
| CCCNC(=O)N1[C@H](CO)[C@H](c2ccc(C#Cc3cccc(F)c3)cc2)[C@@H]1C#N [BRD9781] | 40 | 8550 |  |  |  |  |  |  |  |  |  |  |  |  | IC50 [2, 11]: 80 nM; IC50 ([2]; read-out: Pb-Luc IC50, Figure 4a, stereoisomers tested in dose response, listed as BRD9781/7539 series SRR): 39 nM; activity in a DHODH assay (Plasmodium DHODH enzyme): inactive |
| COc1cc(NC(C)CCCN)c2ncccc2c1 (stereo not drawn) [Primaquine, reference compound] |  |  |  |  |  |  |  |  | 1 | 3 | 13 | 4 | 19 | 24 | IC50 ([4]; 3D7, read-out: P. falciparum (blood) IC50): 695 nM; IC50 ([5]; read-out: P. berghei (liver) IC50): 705 nM |
| O=C1C(O)=C([C@H]2CC[C@H](c3ccc(Cl)cc3)CC2)C(=O)c2ccccc21 [Atovaquone, reference compound] |  |  | 34 | 2.8 | 7.9 | 1.6 | 1.1 | 0.9 |  |  |  |  |  |  | IC50 [4, 13]: < 0.4 nM; IC50 [5, 14]: 0.25 nM |
| O=C(NCCN1CCCC1)c1cc(-c2ccc(CN3CCOCC3)cc2)nc2ccc(F)cc12 [DDD107498, reference compound] |  |  | 2.2 | 1.6 | 0.8 | 1.1 | 0.9 | 0.7 |  |  |  |  |  |  |  |
| CCCNC(=O)N1[C@H](C#N)[C@H](c2ccc(C#Cc3cccc(F)c3)cc2)[C@H]1CO [BRD7539] | 2 | 10 |  |  |  |  |  |  |  |  |  |  |  |  | IC50 ([2]; read-out: Pb-Luc IC50, Figure 4a, stereoisomers tested in dose response, listed as BRD9781/7539 series SSS): 2 nM |
